Results: EP1218024B1, “ASPARTAME DERIVATIVES FOR DECREASING BLOOD VISCOSITY” (Oklahoma Medical Research Foundation, priority 1999, dated 2001)
Where a SMILES comes first, the peptide text is derived from it.

How the values were obtained:
sickle cells = assay: Metabisulfite slide test to measure sickling in blood samples; format: cell-based, patients
[1] = test system: red blood cells containing HbS; details: disclosed in WO 00/18418; cited from earlier work
whole blood viscosity [2] = assay: Whole blood viscosity by RBC pipette method after in vitro addition of APM to patient blood samples; design: species or system patients; details: for viscosity of the blood samples compared to the control: samples at 480 minutes post-treatment, additional 1 or 2 milligrams/milliliter APM in vitro
Procedure: (§1) To measure viscosity, 1.01 cc of the test fluid, i.e., either water, saline or blood, was drawn into an RBC pipette using a 50 cc syringe attached via rubber tubing to the top of the RBC pipette. Using a constant pressure of 20 mm by maintaining the pressure with visual feedback and hand pressure, the amount of time it took for the test fluid to drip out of the RBC pipette was measured with a stopwatch. Each measurement was made in triplicate. Changes in viscosity from baseline for patient blood samples were recorded and compared to normal controls.
Samples with high viscosity readings at 480 minutes or 1,440 minutes post-treatment, chosen to represent patients with a validated response to APM who were returning to normal, were divided and treated with an additional 0, 1, or 2 milligrams/milliliter APM in vitro, in an effort to measure whether a second inducible sickling response was possible and if a second response to the in vitro APM addition could be observed. The viscosity of each sample at 480 minutes post-treatment was measured.

[3] = clinical trial; unknown mechanism; cited from earlier work
whole blood viscosity [4] = assay: Whole blood viscosity by RBC pipette method, before and after oral APM administration to patients; format: in vivo
Procedure: Blood samples were obtained from ten patients having homozygous HgBss disease or heterozygous Hgbsc disease before and after a blinded administration of APM at 1.5 (low dose), 3 (medium dose), or 6 (high dose) milligrams per kilogram body weight. TABLE I: Patient Characteristics
Viscosity determinations using the RBC pipette method of Wright and Jenkins (1970, Blood 36:516) were made on each blinded whole blood sample before and 120 minutes after blinded administration of APM. Each measurement was made in triplicate. Control viscosity measurements using saline and water for each patient and normal whole blood were also made to validate the viscosity measurements.
as §1

[5] = all ten patients, baseline vs 120 minutes post-treatment, APM 1.5, 3 or 6 mg/kg body weight

## COC(=O)[C@H](Cc1ccccc1)NC(=O)[C@@H](N)CC(=O)O [APM, N-L-alpha-aspartyl-L-phenylalanine 1-methyl ester] (H-Asp-Phe-OMe)
Sickle cells; APM given orally
  number of sickle cells in HgBss blood: reduces
Sickle cells; addition of APM in vitro
  number of sickle cells in HgBss blood: reduces
[1]
  capacity of red blood cells containing HbS to sickle with hypoxemia: reduction
Whole blood viscosity [2]; APM in vitro
  effect on Hgbsc blood: not affected
Whole blood viscosity [2]; HgBss patients
  viscosity of the blood samples compared to the control: decreased
Whole blood viscosity [2]; Hgbsc patients
  viscosity of the blood samples compared to the control: increase
Whole blood viscosity [2]; addition of APM in vitro
  viscosity of HgBss blood: reduces
[3]
  pain and inflammation of osteo- and mixed osteo- and rheumatoid arthritis: alleviate
Whole blood viscosity [4]; APM given orally
  viscosity of HgBss blood: reduces
Whole blood viscosity [4]; APM in vivo
  effect on Hgbsc blood: not affected
Whole blood viscosity [4]; HgBss patients, baseline vs 120 minutes post-treatment
  No. of Patients, Viscosity change decreasing, HgBss: 5
Whole blood viscosity [4]; Hgbsc patients, baseline vs 120 minutes post-treatment
  No. of Patients, Viscosity change increasing, Hgbsc: 3
Whole blood viscosity [4]; [5]
  No. of Patients, Viscosity change decreasing: 7
  No. of Patients, Viscosity change increasing: 3
Whole blood viscosity [4]; blood samples from patients with sickle cell disease (HgBss)
  viscosity compared against Pirofsky's change in viscosity vs. hematocrit standard: decreased
Whole blood viscosity [4]; blood samples from patients with sickle cell trait (Hbgsc)
  viscosity compared against Pirofsky's change in viscosity vs. hematocrit standard: increased
Whole blood viscosity [4]; five patients identified as HgBss, baseline vs 120 minutes post-treatment
  blood viscosity after treatment over time: decreased
Whole blood viscosity [4]; sbthal patients, baseline vs 120 minutes post-treatment
  No. of Patients, Viscosity change decreasing, sbthal: 2
Whole blood viscosity [4]; three patients diagnosed as Hgbsc, baseline vs 120 minutes post-treatment
  viscosity after treatment over time: increased
Whole blood viscosity [4]; two patients diagnosed as sbthal, baseline vs 120 minutes post-treatment
  blood viscosity after treatment over time: decreased
